Values quoted from earlier work as cited in the CATMoS acute toxicity set (Mansouri et al. 2021).
Values joined by “and” are separate entries in the source; they are usually repeats but may differ in a detail not shown here. Equal values may be shown once.

test: rat acute oral toxicity; conditions: in vivo

| SMILES | LD50 |
| --- | --- |
| N/C(CNc1ccc(Cl)c(Cl)c1)=N/O | 245 mg/kg |
| CCN(CC)CCNc1ccc(CO)c2sc3ccccc3c(=O)c12 | 980 mg/kg |
| O=C(CO)Nc1ccccc1 | 1700 mg/kg |
| CC(C)(C)N(NC(=O)c1ccc(Cl)cc1)C(=O)c1ccccc1 | 2850 mg/kg |
| OC[C@H]1O[C@@H]2O[C@H]3[C@H](O)[C@@H](O)[C@@H](O[C@H]4[C@H](O)[C@@H](O)[C@@H](O[C@H]5[C@H](O)[C@@H](O)[C@@H](O[C@H]6[C@H](O)[C@@H](O)[C@@H](O[C@H]7[C@H](O)[C@@H](O)[C@@H](O[C@H]8[C@H](O)[C@@H](O)[C@@H](O[C@H]1[C@H](O)[C@H]2O)O[C@@H]8CO)O[C@@H]7CO)O[C@@H]6CO)O[C@@H]5CO)O[C@@H]4CO)O[C@@H]3CO | 18800 mg/kg |
| CC(N)C(OCCN(C(C)C)C(C)C)C(=O)c1ccccc1 (centres undefined) | 238 mg/kg |
| CCN(CC)CC#CC(C)(C)OC(=O)C(O)(c1ccccc1)C1CCCCC1 (centres undefined) | 735 mg/kg |
| C#CC(C)(C)NC(=O)C=Cc1cc(OC)c(OC)c(OC)c1 | 570 mg/kg |
| CC1(C)CC2(NC(=O)N(CCCN3CCC(O)CC3)C2=O)c2cc(F)ccc2O1 (centres undefined) | 780 mg/kg |
| CC1(CO)CN(c2ccccc2)NC1=O (centres undefined) | 566 mg/kg |
| CC12CCC3(CCCC(C)(C)C3C1)OC2=O (centres undefined) | 1600 mg/kg |
| CCOP(=S)(OCC)Oc1ccc(N=C=S)cc1 | 251 mg/kg |
| CCc1cc2c(s1)N(C)C(=O)CN=C2c1ccccc1Cl | 1460 mg/kg |
| CCOC(=S)SCC#N | 210 mg/kg |
| c1cc(OCC2CO2)ccc1CC1CO1 (centres undefined) | 4290 mg/kg |
| CCCCCCOC(=O)c1ccccc1 | 12300 mg/kg |
| COP(=S)(OC)SCn1nc(Br)ccc1=O | 3.75 mg/kg |
| C1=CC(c2ccc(C3CC=CCC3)cc2)CCC1 (centres undefined) | 17500 mg/kg |
| COc1ccc(-c2noc(CC(=O)O)c2-c2ccc(OC)cc2)cc1 | 887 mg/kg |
| CC(Cl)CCC(C)Cl (centres undefined) | 4000 mg/kg |
| CCOCN(C(=O)CO)c1c(C)cccc1CC | 2400 mg/kg |
| CC1COCC(C)N1C(=O)C[n+]1ccc(-c2cc[n+](CC(=O)N3C(C)COCC3C)cc2)cc1 (centres undefined) | 345 mg/kg |
| CC(=O)NCCO | 27000 mg/kg |
| FC(F)(F)c1cccc(C2CNCCO2)c1 (centres undefined) | 271 mg/kg |

| SMILES | LD50 |
| --- | --- |
| CC(=O)OCC=Cc1ccccc1 | 3300 mg/kg |
| CC(C)(O)C#CC(C)(C)O | 9000 mg/kg |
| CCc1c(Cl)ccc(O)c1Cl | 2260 mg/kg |
| OC(CCN1CCCCC1)(c1ccccc1)C1CC2C=CC1C2 (centres undefined) | 750 mg/kg |
| C=CC(=O)NC(C)(C)CS(=O)(=O)O | 16000 mg/kg |
| CCN(CC)C(=O)c1ccccc1O | 580 mg/kg |
| COc1ccccc1C=O | 2500 mg/kg |
| Cc1ncc(CO)c(C(=O)O)c1O | 7500 mg/kg |
| CC(C(=O)O)c1ccc(-c2ccccc2)c(F)c1 (centres undefined) | 117 mg/kg |
| C=CCc1ccc(O)c(OC)c1 | 1930 mg/kg |
| OCCN(CCO)c1nc(N2CCCCC2)c2nc(N(CCO)CCO)nc(N3CCCCC3)c2n1 | 8400 mg/kg |
| O=S(=O)(O)c1ccc(N=Nc2ccc(N=Nc3c(O)ccc4ccccc34)cc2)cc1 | 7740 mg/kg |
| CN(N=O)C(C)(C)c1ccccc1 | 2100 mg/kg |
| CCOC(C1=NCCCN1)c1ccc(Cl)cc1 (centres undefined) | 875 mg/kg |
| CN(CC#N)N=O | 45 mg/kg |
| C[C@H]1O[C@@H](n2cc(F)c(=O)[nH]c2=O)[C@H](O)[C@@H]1O | 3390 mg/kg |
| N#CCCN(CCO)c1ccccc1 | 3210 mg/kg |
| Nc1ncnc2[nH]ncc12 | 141 mg/kg |
| CCCC(=O)OC(=C(Cl)Cl)P(=O)(OC)OC | 1100 mg/kg |
| CCC(C)c1ccccc1OC(=O)NC (centres undefined) | 350 mg/kg |
| S=c1[nH]c2ccccc2[nH]1 | 300 mg/kg |
| O=C(CF)NCc1ccc(Br)cc1 | 410 mg/kg |
| CC(=O)CC(=O)Nc1ccc(Cl)cc1C | 3500 mg/kg |
| Cc1cc(F)ccc1NC(=O)c1cc(Cl)cc(-c2ccc(Cl)cc2)c1O | 2510 mg/kg |

| SMILES | LD50 |
| --- | --- |
| CN(C)C(=O)N(C)N=O | 240 mg/kg |
| CCCC(Cn1cncn1)c1ccc(Cl)cc1Cl (centres undefined) | 2120 mg/kg |
| C[n+]1ccc(-c2ccccc2)cc1 | 35 mg/kg |
| O=[N+]([O-])c1cc(C(F)(F)F)cc([N+](=O)[O-])c1Cl | 930 mg/kg |
| CCOP(=S)(OCC)N(SN(C)C(=O)ON=C(C)SC)C(C)C | 325 mg/kg |
| O=C1OC2(c3ccc(O)cc3Oc3cc(O)ccc32)c2ccccc21 | 6720 mg/kg |
| CCC(C)CC(CC)Nc1ccc(NC(CC)CC(C)CC)cc1 (centres undefined) | 2400 mg/kg |
| C/C(=C\C(C)CC(C)CC(C)C)C1CC(=O)OC1=O (centres undefined) | 2550 mg/kg |
| CCNP(=S)(OC)Oc1cc(Cl)c(Cl)cc1Cl (centres undefined) | 450 mg/kg |
| CCOP(=O)(OCC)C(SCC)(P(=O)(OCC)OCC)P(=O)(OCC)OCC | 7.25 mg/kg |
| CCOc1ccccc1C(N)=O | 2200 mg/kg |
| CCOC(=O)N(C)N=O | 180 mg/kg |
| O=C(Cc1ccc2c(c1)OCc1ccccc1C2=O)OCC(O)CO (centres undefined) | 95 mg/kg |
| O=C(CCBr)N1CCN(C(=O)CCBr)CC1 | 220 mg/kg |
| Cc1cc(C)c(Cc2cc(C)c(C)cc2C)cc1C | 4500 mg/kg |
| CCN(CC)c1nc(N(C=NC2CC(C)(C)NC(C)(C)C2)C2CC(C)(C)NC(C)(C)C2)nc(N(C=NC2CC(C)(C)NC(C)(C)C2)C2CC(C)(C)NC(C)(C)C2)n1 | 826 mg/kg |
| CN(C)CCCC(CCc1ccc2c(c1)OCO2)CCc1ccc2c(c1)OCO2 | 1230 mg/kg |
| C#CCON=CC1=CCCNC1 | 80 mg/kg |
| NC(=S)NC(=S)Nc1ccccc1 | 250 mg/kg |
| CC(C(=O)O)c1ccc(N2Cc3ccccc3C2=O)cc1 (centres undefined) | 84 mg/kg and 60.8 mg/kg |
| CCNc1nc(NCC)nc(OC)n1 | 535 mg/kg |
| O=C(c1ccc(O)cc1O)c1ccc(O)cc1O | 1220 mg/kg |
| CCNC(=O)OCCSCSP(=S)(OC)OC(C)C (centres undefined) | 8.5 mg/kg |
| CC(C)Oc1ccccc1N | 840 mg/kg |

| SMILES | LD50 |
| --- | --- |
| BrCBr | 108 mg/kg |
| CC(CCN(C)C)N(C)C (centres undefined) | 750 mg/kg |
| CC(N)C12CC3CC(CC(C3)C1)C2 (centres undefined) | 640 mg/kg |
| CCOC(C1=NCC(CC)(CC)CN1)c1ccc(Cl)cc1 (centres undefined) | 375 mg/kg |
| CC(C)(N)Cc1ccccc1 | 188 mg/kg |
| CCCCn1c(=O)n(CCC)c(=O)c2c(NC)n(C(=O)OC)nc21 | 2380 mg/kg |
| CN(N=O)c1ccc(N=O)cc1 | 1370 mg/kg |
| CC(C)(C)NCCC(O)c1cc(C(F)(F)F)nc2c(C(F)(F)F)cccc12 (centres undefined) | 2090 mg/kg |
| CNC(=O)CSP(O)(=S)OC (centres undefined) | 1500 mg/kg |
| CC(=O)c1ccc(C)cc1 | 1400 mg/kg |
| CCc1cccc2cc(C(O)CNC(C)(C)C)oc12 (centres undefined) | 750 mg/kg |
| O=C(c1ccccc1)c1ccc2n1CC[C@H]2C(=O)O | 189 mg/kg |
| C#CC(=O)O | 100 mg/kg |
| CC(C)OP(=S)(CCl)Sc1ccc(F)cc1 (centres undefined) | 39 mg/kg |
| CN(SC(Cl)(Cl)Cl)C(=O)ON=C1SC(=C(C#N)C#N)SC1(C)C | 538 mg/kg |
| O=C(OCC1CO1)c1cccc(C(=O)OCC2CO2)c1 (centres undefined) | 1000 mg/kg |
| CCCC1=NN(c2ccccc2)C(=O)C1C=O (centres undefined) | 765 mg/kg |
| Cc1c(Br)cc2[nH]c(C(F)(F)F)nc2c1[N+](=O)[O-] | 83 mg/kg |
| COc1ccc2c3c1O[C@H]1C[C@@H](O)C=C[C@@]31CCN(C)C2 | 75 mg/kg |
| OCC(O)C1CC=CCC1 (centres undefined) | 1070 mg/kg |
| CC1CCCC2N(C)C=C(C(N)=O)C(=O)N12 (centres undefined) | 370 mg/kg |
| CCN(CC)C(=O)Cl | 2700 mg/kg |
| CC(C)(C)N(CCO)CCO | 2720 mg/kg |
| CN1CN(CC(=O)O)CSC1=S | 1000 mg/kg |

| SMILES | LD50 |
| --- | --- |
| CCOP(=S)(OCC)SCSc1cc(Cl)ccc1Cl | 44 mg/kg |
| COc1ccccc1OC(=O)[C@H](C)c1ccc(CC(C)C)cc1 | 2060 mg/kg |
| Nc1ccccc1Cl | 1020 mg/kg |
| CC(C)CCOC(=O)c1ccccc1O | 3300 mg/kg |
| COP(=O)(OC)OC(=CCl)c1cc(Cl)ccc1Cl | 3790 mg/kg |
| CC(C)=CCN1CC[C@@]2(C)c3cc(O)ccc3C[C@@H]1[C@@H]2C (racemic) | 1110 mg/kg |
| CN=C(O)Oc1cccc2c1OC(C)C2 (centres undefined) | 43 mg/kg |
| CNC(=O)Oc1ccccc1C1OCC(C)(C)O1 (centres undefined) | 110 mg/kg |
| CNC(=O)Nc1c(OCCN2CCCC2)c(OC)c2occc2c1OC | 1050 mg/kg |
| Nc1cccc(C(F)(F)F)c1 | 480 mg/kg |
| C#CC(OC(=O)C1C(C=C(C)C)C1(C)C)/C(C)=C/CC (centres undefined) | 1680 mg/kg |
| NCC(CC(=O)O)c1ccc(Cl)cc1 (centres undefined) | 145 mg/kg |
| Brc1ccc2[nH]cc(CC3CCNCC3)c2c1 | 25 mg/kg |
| C[C@@H]1C[C@H]2[C@@H]3CCC4=CC(=O)C=C[C@]4(C)[C@@]3(F)[C@@H](O)C[C@]2(C)[C@@]1(O)C(=O)COC(=O)c1ccncc1 | 3560 mg/kg |
| COC1CC2CC1C1CC(C=O)CC21 (centres undefined) | 2800 mg/kg |
| OCCSSCCO | 173 mg/kg |
| N[C@@H](Cc1c[nH]c2ccc(O)cc12)C(=O)O | 243 mg/kg |
| C=CCI | 10 mg/kg |
| C=CC(C)(O)CCCCC (centres undefined) | 1800 mg/kg |
| O=C(CCN1CCN2c3ccccc3CCC2C1)Cc1ccc(F)cc1 (centres undefined) | 800 mg/kg |
| CCCCCCCCCCCCCCCCCCOC(=O)Cc1ccc(N(CCCl)CCCl)cc1 | 200 mg/kg |
| C=C(C)c1ccc(C(C)(C)N=C=O)cc1 | 4400 mg/kg |
| CC(C)C(=O)OC1CCC(N2CCCCC2)CC1 (centres undefined) | 3150 mg/kg |
| CC(C)=CCCC(C)CC(=O)O (centres undefined) | 2610 mg/kg |

| SMILES | LD50 |
| --- | --- |
| O=C1C(Cl)C(CCl)CN1c1cccc(C(F)(F)F)c1 (centres undefined) | 3650 mg/kg |
| CCCOP(=S)(OCCC)Oc1cnn(C)c(=O)c1OC | 26 mg/kg |
| CCOC(CC(OCC)OCC)OCC | 1610 mg/kg |
| C[C@@H](N)[C@@H](O)c1ccccc1 | 1490 mg/kg |
| CCC(Cl)Cl | 6500 mg/kg |
| c1ccc2cc(Nc3ccc(Nc4ccc5ccccc5c4)cc3)ccc2c1 | 4500 mg/kg |
| CCCC/C=C\CCCCCCO | 11700 mg/kg |
| COc1c(Cl)c(Cl)c2[nH]c(C(F)(F)F)nc2c1Cl | 33 mg/kg |
| NCc1ccc(S(N)(=O)=O)cc1 | 9210 mg/kg |
| C/C=N/O | 740 mg/kg |
| CC(C)Nc1ccccc1 | 560 mg/kg |
| c1ccc(C2=C(c3ccccc3)SCCO2)cc1 | 3000 mg/kg |
| CCOC1c2ccccc2C(=O)N(C)c2ccccc21 (centres undefined) | 4000 mg/kg |
| C=CCSSCC=C | 260 mg/kg |
| CN(C)CCN(Cc1ccccc1)c1ccccn1 | 469 mg/kg |
| CCOC(=O)CSP(=O)(OC)OC | 385 mg/kg |
| CCOC(=S)C=Cc1ccc(OC)cc1 | 930 mg/kg |
| N#CSc1ccc(N)cc1 | 240 mg/kg |
| CCN1C[C@]2(COC)[C@H](O)C[C@H](OC)[C@]34C1[C@H]([C@H](OC)[C@H]23)[C@]1(OC(C)=O)[C@H]2[C@@H](OC(=O)c3ccccc3)[C@](O)(C[C@H]24)[C@@H](OC)[C@@H]1O | 5.97 mg/kg |
| CNC(=O)ON=C1SCCOC1C (centres undefined) | 6 mg/kg |
| CCC(CC)C(=O)O | 2200 mg/kg |
| O=C(O)C1CCCCC1 | 3260 mg/kg |
| CC(Cc1ccc(O)cc1)NCC(O)c1cc(O)cc(O)c1 (centres undefined) | 1600 mg/kg |
| Clc1cc(Cl)cc(Cl)c1 | 800 mg/kg |
